These results are taken from patent US20040137436A1, “Method for measuring drug resistance” (priority 2000, published 2004).

The test system of this assay is HIV-1. Type of assay: cell-based. The conditions noted are these: for Geometric Mean Phenotype: fold change in IC50 vs wild type; for Average Phenotype (log): log fold resistance.
Setting [1] is: RT codon 41 ANY, 184 ANY, 215 ANY.
Setting [2] is: RT codon 41 WT, 184 V/I, 215 F/Y.
[3] abbreviates: RT codon 41 WT, 184 V/I, 215 WT.
The mark [4] stands for this setting: RT codon 41 WT, 184 WT, 215 F/Y.

Each structure is given as a SMILES string. Read-outs that look alike come from different tables or passages of the source.

In the case of `Cc1cn([C@H]2C[C@H](N=[N+]=[N-])[C@@H](CO)O2)c(=O)[nH]c1=O` [AZT, zidovudine], the “effect of inclusion of the 184V mutation on magnitude of AZT resistance” value (184V together with AZT resistance mutations, each cluster (FIG. 7)) is listed as “substantial reduction”. Further, the “Geometric Mean Phenotype” value under setting [1] is 3.9 fold; the “Geometric Mean Phenotype” value (RT codon 41 L, 184 WT, 215 F/Y) is recorded as 27.7 fold; the “Geometric Mean Phenotype” value (RT codon 41 L, 184 WT, 215 WT) is on record as 1.7 fold; the “Geometric Mean Phenotype” value under setting [2] was found to be 6.2 fold; the “Geometric Mean Phenotype” value under setting [3] is listed as 1.3 fold; the “Geometric Mean Phenotype” value under setting [4] amounted to 13.4 fold. Also, the “Geometric Mean Phenotype” value (RT codon 41 WT, 184 WT, 215 WT) was determined as 1.3 fold. For the same molecule, under “genetic clusters with multiple mutations conferring AZT resistance (FIG. 7)”, the “mean fold resistance, increase” value is approximately 100 fold. For the same molecule, the “Average Phenotype (log)” value by setting is: under setting [1], 0.59; (RT codon 41 L, 184 WT, 215 F/Y) 1.44; (RT codon 41 L, 184 WT, 215 WT) 0.24; under setting [2], 0.79; under setting [3], 0.10; under setting [4], 1.13. The “Average Phenotype (log)” value (RT codon 41 WT, 184 WT, 215 WT) is listed as 0.12. The “susceptibility profile of genetic cluster” value (virus harbouring the 184V mutation (FIG. 7)) is “slightly reduced level of susceptibility”.
